pKi: −log10 of the molar value. Read-outs that look alike come from different tables or passages of the source.
Molecular target: T1, hMCHR (MCH receptor) (Homo sapiens, UniProt Q99705)
T1 construct: (or internally produced); host or cells: CHO (Chinese hamster ovary) cells, membrane preparation
Assay: MCH Assay PCOP Protocol ([125I]-MCH SPA binding to hMCHR-CHO membranes);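 for Activity (Ki range): A 0.4–50 nM B 51–500 nM C 501–2500 nM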
Experimental: A reaction mixture of 10 μg hMCHR-CHO overexpressing membranes (from Receptor Biology, Inc., Beltsville, Md., or internally produced) and 100 μg/well WGA-SPA beads (from Amersham Pharmacia Biotech, Inc., Piscataway, N.J.)/100 μl was prepared in MCHR assay buffer (25 mM HEPES, pH 7.4, 10 mM NaCl, 10 mM MgCl2, 5 mM MnCl2, 0.1% BSA). […] The assay plates were shaken for 5 minutes on a plate shaker, then incubated for 2 hours before cpm/well were determined in a Microbeta Trilux counter (from PerkinElmer Wallac, Inc., Gaithersburg, Md.).

[1] = [125I]-MCH 0.5 nM, hMCHR-CHO membranes, read-out: Activity (ranges of Ki values)
[2] = [125I]-MCH binding to hMCHR-CHO membranes, class symbols for ranges of Ki, read-out: Activity (Ki range)
[3] = [125I]-MCH SPA binding, hMCHR-CHO membranes, Ki class ranges, read-out: Activity (range of Ki)

T1 sequence (Q99705 whole entry): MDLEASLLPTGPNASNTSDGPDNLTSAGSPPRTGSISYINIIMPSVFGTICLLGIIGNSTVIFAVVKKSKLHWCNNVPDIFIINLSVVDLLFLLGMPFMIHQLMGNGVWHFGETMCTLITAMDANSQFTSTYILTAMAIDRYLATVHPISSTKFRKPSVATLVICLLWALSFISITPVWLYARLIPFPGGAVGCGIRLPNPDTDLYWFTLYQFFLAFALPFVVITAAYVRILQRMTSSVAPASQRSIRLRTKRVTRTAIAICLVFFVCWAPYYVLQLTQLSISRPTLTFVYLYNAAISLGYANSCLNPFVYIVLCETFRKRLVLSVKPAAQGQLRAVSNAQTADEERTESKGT

Row | SMILES | pKi [1] | pKi [2] | other results
1 | COc1ccccc1-c1cccc(C(CCNCCCN(C)C)CNC(=O)Nc2cc(Cl)cc(Cl)c2)c1 (stereo not shown) [Example 174] | 5.60 to 6.30 | – | –
2 | N#Cc1cccc(-c2ccc([C@H](CCN3CC[C@@H](NC(=O)c4cc(Cl)cc(Cl)c4)C3)CNC(=O)Nc3cc(Cl)cc(Cl)c3)cc2)c1 [Example 28, (R,S)-3,5-Dichloro-N-(1-{3-(3′-cyano-biphenyl-4-yl)-4-[3-(3,5-dichloro-phenyl)-ureido]-butyl}-pyrrolidin-3-yl)-benzamide] | 5.60 to 6.30 | – | –
3 | O=C(NCC(CCN1CCC(NC(=O)C2CCC2)CC1)c1ccc(Cl)c(Cl)c1)Nc1cc(Cl)cc(Cl)c1 (stereo not shown) [Example 191] | 6.30 to 7.29 | – | –
4 | O=C(NCC(CCNCc1ccc2c(c1)OCO2)c1ccc(Cl)c(Cl)c1)Nc1cc(Cl)cc(Cl)c1 (stereo not shown) [Example 295] | – | 5.60 to 6.30 | –
5 | O=C(NCC(CCNC1CCC1)c1ccc(Cl)cc1)Nc1cc(Cl)cc(Cl)c1 (stereo not shown) [Example 273] | – | 6.30 to 7.29 | –
6 | Cc1ccc(C(CCN2CCCCC2)CNC(=O)Nc2ccc(Cl)c(Cl)c2)cc1 (stereo not shown) [Example 352] | – | 6.30 to 7.29 | –
7 | O=S(=O)(NCC(CCNC1CCCC1)c1ccc(Cl)c(Cl)c1)c1ccc(Cl)c(Cl)c1 (racemic) [Example 21, (R,S)-3,4-Dichloro-N-[4-cyclopentylamino-2-(3,4-dichloro-phenyl)-butyl]-benzenesulfonamide] | 5.60 to 6.30 | – | –
8 | O=C(NCC(CCN1CCC(CN2CCCCC2)CC1)c1ccc(Cl)c(Cl)c1)Nc1cc(C(F)(F)F)cc(C(F)(F)F)c1 (stereo not shown) [Example 429] | – | – | pKi [3]: 5.60 to 6.30
9 | O=C(NCC(CCNC1CCCC1)c1ccc(-c2cccs2)cc1)Nc1cc(Cl)cc(Cl)c1 (stereo not shown) [Example 230] | – | 6.30 to 7.29 | –
10 | O=C(NCC(CCNC1CCCC1)c1ccc2c(c1)OCO2)Nc1ccc(Cl)c([N+](=O)[O-])c1 (stereo not shown) [Example 104] | 6.30 to 7.29 | – | –
11 | O=C(NCC(CCNC1CCCC1)c1ccc2c(c1)OCO2)Nc1cc(Cl)cc(Cl)c1 (stereo not shown) [Example 106] | 6.30 to 7.29 | – | –
12 | CN(C)CCC(CNC(=O)Nc1cccnc1)c1ccc(-c2cccc(C#N)c2)cc1 (stereo not shown) [Example 71] | 6.30 to 7.29 | – | –
13 | O=C(NCC(CCN1CCCCC1)c1ccc(Cl)c(Cl)c1)c1cccc(C(F)(F)F)c1 (stereo not shown) [Example 449] | – | – | pKi [3]: 5.60 to 6.30
14 | N#Cc1cccc(C(=O)NCC(CCN2CCCCC2)c2ccc(Cl)c(Cl)c2)c1 (stereo not shown) [Example 453] | – | – | pKi [3]: 5.60 to 6.30
15 | O=C(NCC(CCN1CCC(N2CCCCC2)CC1)c1ccc(Cl)c(Cl)c1)Nc1ccc(OC(F)(F)F)cc1 (stereo not shown) [Example 362] | – | 5.60 to 6.30 | –
16 | O=C(NCC(CCN1CCN(c2ccc(O)cc2)CC1)c1ccc(Cl)c(Cl)c1)c1cc(C(F)(F)F)cc(C(F)(F)F)c1 (stereo not shown) [Example 402] | – | 5.60 to 6.30 | –
17 | O=C(NCC(CCN1CCC(N2CCCCC2)CC1)c1ccc(Cl)c(Cl)c1)Nc1cccc(Cl)c1Cl (stereo not shown) [Example 358] | – | 5.60 to 6.30 | –
18 | O=C(NCC(CCNC1CCCC1)c1ccc(Cl)c(Cl)c1)Nc1ccc(F)c([N+](=O)[O-])c1 (stereo not shown) [Example 141] | 5.60 to 6.30 | – | –
19 | O=C(NCC(CCNCc1ccc2c(c1)OCO2)c1ccc(Cl)c(Cl)c1)Nc1ccc(F)c(Cl)c1 (stereo not shown) [Example 261] | – | 6.30 to 7.29 | –
20 | CCN(CCC(CNC(=O)Nc1cc(C(F)(F)F)cc(C(F)(F)F)c1)c1ccc(Cl)c(Cl)c1)Cc1ccncc1 (stereo not shown) [Example 435] | – | – | pKi [3]: 5.60 to 6.30
21 | CC(=O)NC1CCN(CCC(CNC(=O)Nc2cc(Cl)cc(Cl)c2)c2ccc(Cl)cc2)CC1 (stereo not shown) [Example 196] | 6.30 to 7.29 | – | –
22 | O=C(NCC(CCNC1CCCC1)c1ccc(-c2ccsc2)cc1)Nc1cc(Cl)cc(Cl)c1 (stereo not shown) [Example 229] | – | 6.30 to 7.29 | –
23 | CN(C)CCCNCCC(C)(CNC(=O)Nc1cc(Cl)cc(Cl)c1)c1ccc(Cl)c(Cl)c1 (stereo not shown) [Example 111] | 6.30 to 7.29 | – | –

Continued, in another order:

Row | pKi [1] | pKi [2] | SMILES | other results
24 | 6.30 to 7.29 | – | O=C(NCC(CCN1CCC(NC(=O)C2CCC2)C1)c1ccc(Cl)cc1)Nc1cc(Cl)cc(Cl)c1 (stereo not shown) [Example 178] | –
25 | 7.30 to 9.40 | – | CN(C)CCCNCCC(CNC(=O)Nc1cc(Cl)cc(Cl)c1)c1ccc(-c2ccc(F)c(F)c2)cc1 (stereo not shown) [Example 92] | –
26 | – | 5.60 to 6.30 | O=C(NCC(CCN1CCCCC1)c1ccc(Cl)c(Cl)c1)c1cc(C(F)(F)F)cc(C(F)(F)F)c1 (stereo not shown) [Example 403] | –
27 | 6.30 to 7.29 | – | O=C(NCC(CCN1CCC(NC(=O)c2ccno2)C1)c1ccc(Cl)cc1)Nc1cc(Cl)cc(Cl)c1 (stereo not shown) [Example 193] | –
28 | – | 6.30 to 7.29 | O=C(NCC(CCNC1CCCCC1)c1ccc(Cl)cc1)Nc1cc(Cl)cc(Cl)c1 (stereo not shown) [Example 266] | –
29 | 7.30 to 9.40 | – | COCCNCCC(CNC(=O)Nc1cc(Cl)cc(Cl)c1)c1ccc(-c2cccc(C#N)c2)cc1 (stereo not shown) [Example 72] | –
30 | – | 5.60 to 6.30 | O=C(NCC(CCN1CCC(N2CCCCC2)CC1)c1ccc(Cl)c(Cl)c1)Nc1ccc(Br)cc1Br (stereo not shown) [Example 359] | –
31 | – | 5.60 to 6.30 | Cn1cnc(CCNCCC(CNC(=O)Nc2cc(Cl)cc(Cl)c2)c2ccc(Cl)c(Cl)c2)c1 (stereo not shown) [Example 297] | –
32 | 7.30 to 9.40 | – | COc1cccc(NC(=O)NCC(CCN(C)C)c2ccc(-c3cccc(C#N)c3)cc2)c1 (stereo not shown) [Example 63] | –
33 | 5.60 to 6.30 | – | O=C(NCC(CCNC1CCCC1)c1ccc2c(c1)OCO2)Nc1ccc(F)c([N+](=O)[O-])c1 (stereo not shown) [Example 121] | –
34 | – | 5.60 to 6.30 | CC1CCN(CCC(CNC(=O)c2cc(C(F)(F)F)cc(C(F)(F)F)c2)c2ccc(Cl)c(Cl)c2)CC1 (stereo not shown) [Example 405] | –
